Reference: patent US20230257444A1, “FUSION PROTEIN AND COMBINATIONS THEREOF” (Agency for Science, Technology and Research, priority 2020, published 2023)

Assays:
SC5314 Candida albicans [1] = experiment: In vivo mouse monotherapy survival model (haematogenously disseminated candidiasis); set-up: species or system Balb/c mice
Method: 9 week old female Balb/c mice (InVivos, Singapore) were injected intraperitoneally with 1, 2 or 4 mg hDectin1-Fc in groups of 8 and the drug was allowed to distribute within the mice till its peak concentration at 2 hours based on the pharmacokinetic data. The mice were then injected intravenously with 0.5, 0.25 or 0.1 milion SC5314 Candida albicans cells to achieve a haematogenously disseminated candidiasis model. Another set of mice were injected with 0.5, 1, 2 mg hDectin1-Fc followed by intravenous injection with SC5314 Candida albicans 2 hours later. […] The mice were observed daily and moribund mice were euthanized and counted as dead the following day. Kaplan-Meier survival plots were made to track the survival overtime of the mice. Statistical analysis of the difference between mice treated with hDectin1-Fc or untreated was done with the Mantel-Cox log rank test.
To examine the effect of hDectin1-Fc passive immunization against reducing the fatality of haematogenously disseminated candidiasis, a Balb/c murine model of hDectin1-Fc at various doses in relation to Candida albicans inoculum was used. […] An untreated group without hDectin1-Fc but infected with the respective inoculum of Candida albicans was used as a control in each experimental set (FIG. 15). Survival in each group was monitored twice daily until all the mice had died or there was survival of 2 weeks from the last death. Moribund mice were euthanized and counted as part of the following day. […] The negative effect on survival of a high dose of hDectin1-Fc in relation to fungal inoculum is most apparent in the 4 mg hDectin1-Fc dose with 0.1 million Candida albicans (FIG. 15C) and 2 mg hDectin1-Fc with 0.05 million Candida albicans inoculum (FIG. 15D). […] The proximity between the 2 mg and 1 mg curves have a growing divergence as the fungal burden is reduced from 0.5 to 0.05 million (FIG. 15A-D).

SC5314 Candida albicans [2] = experiment: In vitro co-culture CFU assay of human primary immune cells against Candida albicans; format: cell-based; settings: 1 hr; for fungicidal activity (CFU): absence or presence of hDectin1-Fc; for reduction in CFU: between hDectin1-Fc 0 μg/ml and 1000 µg/ml, 37° C.
Method: Macrophage assay: Human peripheral blood CD14+ monocytes were cultured at 1×10^6 cells/mL in 5 mL of ImmunoCult™-SF Macrophage Differentiation Medium with Human Recombinant M-CSF at 50 ng/ml in a T-25 flask at 37° C. in a 5% CO2 incubator. On Day 4, 2.5 mL of fresh ImmunoCult™-SF Macrophage Differentiation Medium was added to the flask. On Day 6, M1 activation was initiated with the addition of 50 ng/mL IFN-γ. On Day 8, the macrophages were treated with ACCUTASE and scrapped from the flask. The cells were centrifuged and resuspended in RPMI medium with 10% FBS and seeded into Eppendorf 96 well plates at 10^5 cells/well.
NK cell assay: Human Peripheral Blood CD56+NK Cells 1×10^6 cells/mL in 5 mL of ImmunoCult™-XF T Cell Expansion Medium with Human Recombinant IL-2 at 500 IU/ml in a T-25 flask at 37° C. in a 5% CO2 incubator for 7 days. Additional fresh media was added on day 4. The cells were centrifuged and resuspended in RPMI medium with 10% FBS and seeded into Eppendorf 96 well plates at 10^5 cells/well.
Monocyte assay: Human peripheral blood CD14+ Monocytes were cultured at 1×10^6 cells/mL in 5 mL of ImmunoCult™-SF Macrophage Differentiation Medium with Human Recombinant M-CSF at 10 ng/ml in a T-25 flask at 37° C. in a 5% CO2 incubator for 4 days. The cells were centrifuged and resuspended in RPMI medium with 10% FBS and seeded into Eppendorf 96 well plates at 10^5 cells/well.
Neutrophil assay: Human peripheral neutrophils were extracted from Human […] using EasySep™ Direct Human Neutrophil Isolation Kit as per manufacturer's protocol. The isolated neutrophils were centrifuged and resuspended in RPMI medium with 10% FBS and G-CSF and seeded into Eppendorf 96 well plates at 10^5 cells/well.
The co-culture CFU assay involves the addition of 10^5 cells/well of SC5314 Candida albicans cells to wells containing 10^5 cells/well of primary immune cells with final concentration of hDectin1-Fc at […] in a 96 well plate. The assay was incubated for 1 hr at 37° C. in a 5% CO2 atmosphere incubator. Samples were taken from each well at the end of the incubation and diluted accordingly before plating on YPD agar plates. The colonies were counted the following day. Each assay was done thrice and the average taken.
To evaluate the capability of the hDectin1-Fc fusion protein in enhancing immune cell anti-candida function, 10^5 human primary immune cells were co-cultured with 10^5 Candida albicans in a 1 hr long assay incubated at 37° C. with varying concentrations of hDectin1-Fc from […]. The surviving Candida cells were diluted and plated and the colony forming units (CFU) used as a measure of fungicidal activity (FIG. 12). […]

hDectin1-Fc: soluble dimeric fusion protein: human Dectin-1 receptor polypeptide (aa 73-247) fused to human IgG1 Fc via hinge; SEQ ID NO: 5
survival curve (SC5314 Candida albicans [1]; 0.05 mg hDectin1-Fc, subacute inoculum of 0.05 million Candida albicans cells): prominent shift in the survival curve
survival (rate of death vs untreated group) (SC5314 Candida albicans [1]; 2 mg hDectin1-Fc i.p., 0.05 million Candida albicans i.v. (FIG. 15D)): rate of death was greater than the corresponding untreated group
survival (rate of death vs untreated group) (SC5314 Candida albicans [1]; 4 mg hDectin1-Fc i.p., 0.1 million Candida albicans i.v. (FIG. 15C)): rate of death was greater than the corresponding untreated group
survivability (SC5314 Candida albicans [1]; hDectin1-Fc at the appropriate dose, passive immunization 2 hours before challenge): able to improve survivability
survival, 1 mg dose versus 2 mg dose (SC5314 Candida albicans [1]; lethal infection model, 0.5 million Candida albicans cells (FIG. 15A)): marginal optimal therapeutic effect of the 1 mg dose over the 2 mg dose
fungicidal activity (CFU) (SC5314 Candida albicans [2]; human NK cells): did not demonstrate any appreciable fungicidal activity
fungicidal activity (CFU) (SC5314 Candida albicans [2]; human monocytes): did not demonstrate any appreciable fungicidal activity
reduction in CFU (SC5314 Candida albicans [2]; human primary macrophages): ~50%
reduction in CFU (SC5314 Candida albicans [2]; human primary neutrophils): ~50%
